Four compounds from PubChem BioAssay AID602322 (The Scripps Research Institute Molecular Screening Center, 2012) can be followed below.

The term IC50 denotes the concentration that gives 50% inhibition. By pIC50 is commonly meant −log10 of the IC50, conventionally taken in molar units.

Assay [1] concerns the target Diacylglycerol lipase-beta (Mus musculus) (UniProt Q91WC9). The experiment in a line: DAGLb and ABHD6 inhibitors by competitive ABPP – biochemical, gel-based competitive ABPP, fluorescent probe, mouse, selectivity assay for DAGLb inhibitor project, dose response (AID 602322). Conditions: proteome, DAGLb.
The target in assay [2] is Monoacylglycerol lipase ABHD6 (Mus musculus) (UniProt Q8R2Y0). Described as above. Conditions: proteome.

pIC50: −log10 of the molar value. Active and inactive are the calls of the source. The rule behind the calls is not given here.

Sequence of Diacylglycerol lipase-beta (Mus musculus) (Q91WC9 whole entry, looked up): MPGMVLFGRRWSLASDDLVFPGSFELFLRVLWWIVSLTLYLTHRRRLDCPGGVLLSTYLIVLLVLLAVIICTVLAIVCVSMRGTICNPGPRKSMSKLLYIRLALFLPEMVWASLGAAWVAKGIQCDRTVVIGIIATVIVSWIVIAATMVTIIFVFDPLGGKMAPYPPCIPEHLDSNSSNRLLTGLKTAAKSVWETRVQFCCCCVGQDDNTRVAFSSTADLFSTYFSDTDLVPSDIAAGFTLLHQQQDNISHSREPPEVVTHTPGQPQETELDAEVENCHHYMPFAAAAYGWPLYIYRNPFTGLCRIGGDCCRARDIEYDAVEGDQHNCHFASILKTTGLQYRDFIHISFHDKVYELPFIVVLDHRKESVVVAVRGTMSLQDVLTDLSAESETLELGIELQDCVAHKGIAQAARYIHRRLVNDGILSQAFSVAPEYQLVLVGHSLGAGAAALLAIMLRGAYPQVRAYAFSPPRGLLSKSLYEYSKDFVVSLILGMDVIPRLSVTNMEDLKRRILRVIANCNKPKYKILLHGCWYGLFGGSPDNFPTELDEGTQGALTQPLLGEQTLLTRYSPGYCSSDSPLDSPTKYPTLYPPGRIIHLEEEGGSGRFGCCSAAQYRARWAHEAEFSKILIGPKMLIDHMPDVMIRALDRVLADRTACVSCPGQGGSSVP
Sequence of Monoacylglycerol lipase ABHD6 (Mus musculus) (Q8R2Y0 whole entry, looked up): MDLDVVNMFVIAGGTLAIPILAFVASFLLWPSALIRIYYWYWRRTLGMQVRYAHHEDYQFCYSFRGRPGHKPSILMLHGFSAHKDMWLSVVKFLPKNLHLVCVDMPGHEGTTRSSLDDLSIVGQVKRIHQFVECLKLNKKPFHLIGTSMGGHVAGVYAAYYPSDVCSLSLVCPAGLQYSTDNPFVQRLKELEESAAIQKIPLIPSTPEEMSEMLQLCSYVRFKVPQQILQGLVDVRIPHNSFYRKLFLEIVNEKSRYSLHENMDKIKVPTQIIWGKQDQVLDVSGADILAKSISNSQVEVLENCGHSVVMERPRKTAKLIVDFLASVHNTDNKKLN

Take `O=C(N1CCCCC1c1ccccc1)n1cc(-c2ccc(-c3ccccc3)cc2)nn1` (stereo unspecified): the IC50 in assay [1] is > 100 nM (inactive). Also, the negative logarithm of the IC50 (pIC50) in assay [2] is 8.00.

Turning to `COc1ccc(-c2ccc(-c3cn(C(=O)N4CCCCC4c4ccccc4)nn3)cc2)cc1` (stereo unspecified), in assay [1], the IC50 is > 3330 nM (inactive). Further, in assay [2], the negative logarithm of the IC50 (pIC50) was 7.42. As for `O=C(N1CCCCC1c1ccccc1)n1cc(-c2ccc(-c3cccc(CO)c3)cc2)nn1` (stereo unspecified), the IC50 in assay [1] is > 100 nM (inactive). Still for that read-out and setting: with `O=C(O)c1cccc(-c2ccc(-c3cn(C(=O)N4CCCCC4Cc4ccccc4)nn3)cc2)c1` (stereo unspecified) the figure was > 100 nM (inactive).
